Measured values taken from US20260325504A1, “Genetically Engineered Human Pituitary Corticotroph Tumor Organoids Exhibit Divergent Responses to Selective Glucocorticoid Receptor Modulators” (Corcept Therapeutics Incorporated, priority 2022, published 2026).
Entries after “also recorded” stand apart in the source; their conditions may differ. Starred links: 1 amine or outer side, 2 acyl side, 3 side chain; linkers in the order of their positions; H or OH if unused. Non-standard residues stand in square brackets, D forms with d. Residues, ends and D or L forms follow the SMILES beside them. Groups on a side chain read outwards from the residue. *: point of attachment. Ethylenediamine = C(CN[*:2])N[*:1]; Hyp = O=C(O)[C@@H]1C[C@@H](O)CN1; Phg = N[C@H](C(=O)O)c1ccccc1; CO = O=C([*:1])[*:2]; Bn = c1ccc(C*)cc1

Tests used:
[1] = SST14 and SST28; cited from earlier work
hPITO37 = test: Dose response of hPITO37; assay type: cell-based, human; conditions: hPITO37, FIG. 12
Method: (§1) Sonic Hedgehog (SHH) was withdrawn from the organoid growth media 16 hours prior to treatment. The experimental treatment groups included: vehicle (Veh), mifepristone (500 nM, Selleckchem S2606), GANT61 (5 μM, Stemcell Technologies 73692), ketoconazole (Keto, 10 μM, Selleckchem S1353), pasireotide (Pas, 100 nM, Target Mol TP2207-SB001), octreotide (Oct, 100 nM, Selleckchem P1017), mifepristone plus GANT61, mifepristone plus Keto, mifepristone plus Pas, relacorilant (500 nM, Corcept Therapeutics CORT125134), relacorilant plus Pas, relacorilant plus Oct, or dexamethasone (Dexa, 100 nM, SIGMA S4902). In the combination treatments, cultures were pretreated with the GANT61, Keto, Pas or Oct for 2 hours prior to treatment with mifepristone or Rela. PitNET tissue derived organoids hPITO36, hPITO37, hPITO38, hPITO39, and hPITO40 were treated with the following experimental conditions: Vehicle (1), pasireotide (2), relacorilant (3), relacorilant & pasireotide (4), mifepristone (5), mifepristone & pasireotide (6). The IC50 values used for each hPITO line for each drug were determined based on dose responses (FIG. 12). All organoid cultures were treated for 48 hours prior to analysis.

iPSC^ctrl organoids [2] = test: ACTH secretion ELISA, iPSCctrl organoids; assay type: cell-based, human; conditions: FIG. 6G
Method: as §1
(§2) Organoid conditioned media was collected and ACTH secretion using an ELISA according to the manufacturer's protocol (Novus Biologicals Human ACTH ELISA Kit NBP2-66401). The optical density was measured at a wavelength of 450 nm, and ACTH concentration (pg/mL) was interpolated using a standard curve with a 4-parameter logistic regression analysis using GraphPad Prism (v9.3.1).

SSTR5 = conditions: cited from earlier work
iPSC^USP48MV organoids [3] = test: ACTH secretion ELISA, iPSCUSP48 organoids; assay type: cell-based, human; conditions: FIG. 7G
Method: as §1, §2

iPSC^USP48MV organoids [4] = test: EdU uptake (proliferation) in iPSCUSP48MV organoids; assay type: cell-based, human; conditions: 100 nM pretreatment 2 h before mifepristone
Method: (§3) iPSCs were stained for pituitary specific hormones including luteinizing hormone (LH), follicle-stimulating hormone (FSH), growth hormone (GH), prolactin (PRL), ACTH, cytokeratin 8/18 (CAM5.2), pituitary transcription factor PIT-1 and neuroendocrine marker Synaptophysin (Table 5). Cultures were immunostained for proliferation marker EdU (Click-IT EdU Alexa Fluor 555 Imaging Kit, Thermo Fisher Scientific C10338). Antibody dilutions were determined based on manufacturer guidelines and antibody titration (Table 5). Staining was conducted according to previously published protocols. Briefly, organoids and iPSCs grown in 8-well glass bottom chamber slides were fixed using 3.7% formaldehyde, washed with DPBS, permeabilized with 0.5% Triton X-100 (SIGMA X-100, PBS-T, 20 min at room temperature), washed with 0.01% PBS-T, and blocked with 2% donkey serum (Jackson Immuno Research 017-000-121) for 1 hour at room temperature. After blocking, primary antibodies were added and incubated overnight at 4° C. Slides were washed with 0.01% PBS-T and incubated with secondary antibodies (Table 5) with Hoechst (Thermo Fisher Scientific H1399) for 1 hour at room temperature. Organoids were washed and stored in PBS at 4° C. until microscopic analysis. High content confocal microscopy was performed using the Nikon Ti2-E Inverted Microscope (with a Crest X-Light V2 L-FOV Spinning Disk Confocal) at the University of Arizona Cancer Center, or a ZEISS LSM880 34 channel Laser Scanning Confocal Microscope at University of Arizona Marley Imaging Core. Fluorescence intensity was quantified as the percentage of marker-positive cells versus total cells, using Nikon Elements Software (Version 5.21.05). Proliferation for each iPSC line was quantified as the percentage of EdU-positive cells versus total cells.
as §1, with “PitNET tissue derived organoids hPITO36, hPITO37, hPITO38, hPITO39, and hPITO40 were treated with the following experimental conditions: Vehicle (1), pasireotide (2), relacorilant (3), relacorilant & pasireotide (4), mifepristone (5), mifepristone & pasireotide (6).” left out, “All organoid cultures were treated for 48 hours prior to analysis.” left out

iPSC^ctrl organoids [5] = test: EdU uptake (proliferation) in iPSCctrl organoids; assay type: cell-based, human; conditions: 100 nM pretreatment 2 h before mifepristone
Method: as §3
as §1, with “PitNET tissue derived organoids hPITO36, hPITO37, hPITO38, hPITO39, and hPITO40 were treated with the following experimental conditions: Vehicle (1), pasireotide (2), relacorilant (3), relacorilant & pasireotide (4), mifepristone (5), mifepristone & pasireotide (6).” left out, “All organoid cultures were treated for 48 hours prior to analysis.” left out

[6] = test system: patients with Cushing's syndrome; conditions: pasireotide monotherapy, patients with CD, cited from earlier work
ACTH = test: Spectral flow cytometry, ACTH positive cells, hPITOs; assay type: cell-based, human; conditions: hPITO, pretreatment before mifepristone, FIGS. 9I, J
Text: 1.3 Generation and Culture of Human PitNET Tissue Organoids (hPITOs)
Patients undergoing planned transsphenoidal surgery for PitNETs were identified in the outpatient neuroendocrinology and neurosurgery clinics and collected by the St. Joseph's Hospital and Barrow Neurological Institute Biobank under the collection protocol PHXA-05TS038, and outcomes data protocol PHXA-0004-72-29 with approval of the Institutional Review Board (IRB) and patient consent. De-identified samples were shipped in collection and transport media (Table 3) to the Zavros laboratory (University of Arizona) for processing within 24 hours of collection. Resected PitNET tissues were washed with Dulbeccos Phosphate Buffered Saline (DPBS) supplemented with 1× Penicillin/Streptomycin, 1× Kanamycin and 1× Amphotericin/Gentamycin, minced into smaller pieces, and incubated with digestion buffer (Dulbecco's Modified Eagle Medium/Nutrient Mixture F-12 (DMEM/F12) supplemented with 0.4% Collagenase 2, 0.1% Hyaluronic Acid, 0.03% Trypsin). The tissue was incubated with Accutase (Thermo Fisher Scientific) for a further 5 minutes, and the cells were pelleted and washed with DPBS supplemented with antibiotics. Dissociated cells were then seeded as Matrigel™ domes in culture dishes and overlaid with growth media (Table 4). Media was replaced every 3 days and organoids were harvested for downstream experiments or passaged after 15 days of culture (FIG. 1B).
Sonic Hedgehog (SHH) was withdrawn from the organoid growth media 16 hours prior to treatment. […] The IC50 values used for each hPITO line for each drug were determined based on dose responses (FIG. 12). […]

Compound	half-life [1] [min]	drug response (sensitivity) (hPITO37)	effect on ACTH secretion in response to mifepristone (iPSC^ctrl organoids [2]; 100 nM pretreatment 2 h before mifepristone)	reduction of hormone (ACTH) secretion in combination with relacorilant (iPSC^ctrl organoids [2]; with relacorilant)	binding to / activation of SSTR5 (SSTR5)	effect on ACTH secretion in response to mifepristone (iPSC^USP48MV organoids [3]; iPSCUSP48, 100 nM pretreatment 2 h before mifepristone)	reduction of hormone (ACTH) secretion in combination with relacorilant (iPSC^USP48MV organoids [3]; iPSCUSP48MV, with relacorilant)	effect on proliferative response to mifepristone (EdU uptake) (iPSC^USP48MV organoids [4])	effect on proliferative response to mifepristone (EdU uptake) (iPSC^ctrl organoids [5])	patients with normalized cortisol [6]	patients with normalized urinary free cortisol ([6]; two large prospective studies)	effect on mifepristone-induced increase of ACTH expressing cells (ACTH)
SST	< 3	–	–	–	–	–	–	–	–	–	–	–
NCCCC[C@@H]1NC(=O)[C@@H](Cc2c[nH]c3ccccc23)NC(=O)[C@H](c2ccccc2)NC(=O)[C@@H]2C[C@@H](OC(=O)NCCN)CN2C(=O)[C@H](Cc2ccccc2)NC(=O)[C@H](Cc2ccc(OCc3ccccc3)cc2)NC1=O [pasireotide] (cyclo([Hyp]([CO-Ethylenediamine])[Phg][dW]KY(Bn)F))	–	insensitive	significantly reduced ACTH secretion	greater magnitude compared to that of octreotide plus relacorilant	high-affinity binding to SSTR5; also recorded: preferentially binds or activates somatostatin receptor type 5 (SSTR5)	significantly reduced ACTH secretion	greater magnitude compared to that of octreotide plus relacorilant	no effect	no effect	up to 42%	up to 42%	not inhibited
